# Measurements: paper PMC8869358, “High-Throughput Chemical Screening and Structure-Based Models to Predict hERG Inhibition” (Biology, 2022)
# Structures can show the parent of a compound that is named as a salt.
# Target: hERG (Homo sapiens, UniProt Q12809)
# Assay: cell-based
# Conditions: (-LOG10(IC50), µM)
# hERG, sequence (Q12809 whole entry): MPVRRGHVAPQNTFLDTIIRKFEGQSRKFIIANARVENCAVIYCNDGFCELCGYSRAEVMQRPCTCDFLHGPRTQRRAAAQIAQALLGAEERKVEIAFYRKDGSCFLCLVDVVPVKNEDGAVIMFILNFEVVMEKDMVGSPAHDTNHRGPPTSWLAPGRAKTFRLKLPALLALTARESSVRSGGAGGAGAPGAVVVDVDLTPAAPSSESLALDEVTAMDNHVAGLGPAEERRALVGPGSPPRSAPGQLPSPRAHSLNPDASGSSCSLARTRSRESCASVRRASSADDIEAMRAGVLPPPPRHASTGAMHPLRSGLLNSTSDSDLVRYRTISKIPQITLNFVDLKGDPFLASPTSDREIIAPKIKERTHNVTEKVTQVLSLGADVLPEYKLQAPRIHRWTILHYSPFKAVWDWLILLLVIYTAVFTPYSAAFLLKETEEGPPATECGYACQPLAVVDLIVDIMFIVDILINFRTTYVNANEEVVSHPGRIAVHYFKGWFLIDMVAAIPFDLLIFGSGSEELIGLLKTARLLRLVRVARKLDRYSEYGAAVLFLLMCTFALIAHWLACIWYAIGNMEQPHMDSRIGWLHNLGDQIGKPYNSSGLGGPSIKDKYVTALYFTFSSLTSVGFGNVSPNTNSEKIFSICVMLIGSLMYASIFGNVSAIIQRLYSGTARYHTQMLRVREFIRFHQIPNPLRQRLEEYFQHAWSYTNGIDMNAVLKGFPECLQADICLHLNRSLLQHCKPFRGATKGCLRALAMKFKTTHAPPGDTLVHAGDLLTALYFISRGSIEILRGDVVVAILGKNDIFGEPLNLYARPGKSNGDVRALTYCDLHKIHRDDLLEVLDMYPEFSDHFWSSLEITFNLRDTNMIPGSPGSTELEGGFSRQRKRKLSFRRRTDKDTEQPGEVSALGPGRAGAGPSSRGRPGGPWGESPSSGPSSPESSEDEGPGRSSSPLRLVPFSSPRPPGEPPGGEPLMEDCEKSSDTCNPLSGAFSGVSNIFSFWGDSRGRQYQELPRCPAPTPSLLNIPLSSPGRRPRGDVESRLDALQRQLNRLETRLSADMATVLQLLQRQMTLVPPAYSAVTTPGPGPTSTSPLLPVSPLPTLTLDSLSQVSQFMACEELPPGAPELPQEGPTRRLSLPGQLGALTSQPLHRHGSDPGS
row,Compound,IC50 [µM]
1,CSc1ccc2c(c1)C(N1CCN(C)CC1)Cc1ccccc1S2 (stereo not shown) [Metitepine],1.15
2,"CCCCOCCOC(=O)COc1cc(Cl)c(Cl)cc1Cl [2,4,5-T-butotyl]",23.2
3,CCCCOC(=O)CC(CC(=O)OCCCC)(OC(C)=O)C(=O)OCCCC [Acetyl tributyl citrate],8.99
4,"CC(C)(C)CC(C)(C)c1ccc(O)cc1 [4-(1,1,3,3-Tetramethylbutyl)phenol]",21.3
5,CCCCc1oc2ccc(NS(C)(=O)=O)cc2c1C(=O)c1ccc(OCCCN(CCCC)CCCC)cc1 [Dronedarone],0.849
6,CCn1nc(Cc2ccccc2)cc1C1CCN(C[C@H]2C[C@H](N(C)[C@@H](C(=O)O)C(C)C)C[C@@H]2c2cccc(F)c2)CC1 [MK-578],20.3
7,C[N+]1(C)CCC(=C(c2ccccc2)c2ccccc2)CC1 [Diphemanil methylsulfate],6.24
8,COc1ccc(CN2CCN(C(c3ccc(F)cc3)c3ccc(F)cc3)CC2)c(OC)c1OC [Lomerizine dihydrochloride],0.849
9,CCCCCCCCCCCCCCCC[N+](C)(C)CCN(Cc1ccc(OC)cc1)c1ncccn1 [Thonzonium bromide],0.409
10,"CC(C)C(OC(=O)c1ccccc1)C(C)(C)COC(=O)c1ccccc1 (stereo not shown) [2,2,4-Trimethylpentane-1,3-diyl dibenzoate]",21.9
11,"O=C1C=CC(=O)c2ccccc21 [1,4-Naphthoquinone]",21
12,CCCN(CCC)C(=O)CN [C.I. Solvent Black 5],9.21
13,COc1ccccc1N1CCN(CCCCNC(=O)c2ccc(-c3ccc(C(C)=O)cc3)cc2)CC1 [GR 103691],3.01
14,CCc1cc(Cl)c(OC)c(C(=O)NC[C@@H]2CCCN2CC)c1O [Eticlopride hydrochloride],7.56
15,CN1C(CSCC(F)(F)F)Nc2cc(Cl)c(S(N)(=O)=O)cc2S1(=O)=O (stereo not shown) [Polythiazide],19.7
16,S=C=NCCc1ccccc1 [Phenethyl isothiocyanate],16.8
17,N#Cc1ccc(CC(=O)c2cccc(C(F)(F)F)c2)cc1 [4-{2-Oxo-2-[3-(trifluoromethyl)phenyl]ethyl}benzonitrile],30.9
18,Cc1cc(CCN2CCN(c3nsc4ccccc34)CC2)cc2c1NC(=O)CC2(C)C [PD 0343701],16.1
19,COc1cc(C(=O)OCCCN2CCCN(CCCOC(=O)c3cc(OC)c(OC)c(OC)c3)CC2)cc(OC)c1OC [Dilazep],6.01
20,"CCc1cc(C(C)(C)C)c(O)c(C(C)(C)C)c1 [2,6-Di-tert-butyl-4-ethylphenol]",19.5
21,CCN(CC)CCNC(C(=O)OCCC(C)C)c1ccccc1 (stereo not shown) [Camylofin],6.74

row,Compound,IC50 [µM]
1,C=CC(=O)OCC(CO)(COCC(COC(=O)C=C)(COC(=O)C=C)COC(=O)C=C)COC(=O)C=C [Dipentaerythritol pentaacrylate],8.28
2,CCCCCCCC[n+]1ccn(C)c1 [1-Methyl-3-octylimidazolium chloride],19.4
3,CCCN(CCC)C(=O)C(CCC(=O)OCCCN1CCN(CCOC(=O)Cc2c(C)n(C(=O)c3ccc(Cl)cc3)c3ccc(OC)cc23)CC1)NC(=O)c1ccccc1 (stereo not shown) [Proglumetacin],0.365
4,COc1cc2c(cc1OC)-c1c/c(=N\c3c(C)cc(C)cc3C)n(C)c(=O)n1CC2 [Trequinsin hydrochloride],14
5,C=CC(C)(O)CCC=C(C)CCC=C(C)C (stereo not shown) [Nerolidol],47.1
6,CCCN(CCc1cccs1)[C@H]1CCc2c(O)cccc2C1 [Rotigotine],3.01
7,CC(C)COC(=O)C=Cc1ccccc1 [Isobutyl 3-phenylacrylate],50.9
8,COC(=O)C1=C(C)NC(COC(N)=O)=C(C(=O)OC(C)C)C1c1cccc(Cl)c1Cl (stereo not shown) [Lemildipine],23.9
9,C#CCOS(=O)OC1CCCCC1Oc1ccc(C(C)(C)C)cc1 (stereo not shown) [Propargite],20.7
10,CCCCCCCCCCCCc1ccccc1S(=O)(=O)O [Sodium dodecylbenzenesulfonate],24.5
11,ClC1=C(Cl)[C@]2(Cl)[C@H]3[C@H]([C@@H]4C=C[C@H]3C4)[C@@]1(Cl)C2(Cl)Cl [Aldrin],23.6
12,ClCCCN1CCN(c2cccc(Cl)c2)CC1 [1-(3-Chlorophenyl)-4-(3-chloropropyl)piperazine hydrochloride],10.1
13,"CC(C)CC(C)(c1ccc(O)cc1)c1ccc(O)cc1 [4,4'-(4-Methylpentane-2,2-diyl)diphenol]",28.6
14,CCN(CCC#N)c1ccc(N=Nc2c(Cl)cc([N+](=O)[O-])cc2Cl)cc1 [C.I. Disperse Orange 37],40.4
15,OC(c1ccc(Cl)cc1)(c1cncnc1)c1ccccc1Cl (stereo not shown) [Fenarimol],47.9
16,C[C@@H](NCCCc1cccc(C(F)(F)F)c1)c1cccc2ccccc12 [Cinacalcet hydrochloride],12
17,CN(C)C(=O)NC1(c2ccccc2)CCN(CC[C@@]2(c3ccc(F)c(F)c3)CN(C(=O)c3ccccc3)CCO2)CC1 [SR144190],20.3
18,O=c1[nH]c2ccc([S+]([O-])CCN3CCC(Cc4ccc(F)cc4)CC3)cc2o1 (stereo not shown) [Besonprodil],4.36
19,O=C(CCN1CCC(c2ccccc2)C1)c1ccc2c(c1)OCCO2 (stereo not shown) [Proroxan],17.6
20,C/C(=C(/OCCOc1ccc(Cl)cc1)c1ccc(Cl)cc1Cl)n1ccnc1 [Omoconazole],8.17
21,CCCCCCCCCCCCCCCC[N+](C)(C)C [Hexadecyl trimethyl ammonium chloride],18.1

row,Compound,IC50 [µM]
1,CC(C)OC(=O)c1cc(C(=O)OC(C)C)cc([N+](=O)[O-])c1 [Nitrothal-isopropyl],40.6
2,O=[N+]([O-])c1ccc(Oc2ccc(C(F)(F)F)cc2[N+](=O)[O-])cc1 [Fluorodifen],7.76
3,CC(C)Nc1cccnc1N1CCN(C(=O)c2cc3cc(NS(C)(=O)=O)ccc3[nH]2)CC1 [Delavirdine],11.1
4,CCCCCCCCCCCCCC[P+](CCCCCC)(CCCCCC)CCCCCC.N#C[N-]C#N [Trihexyltetradecylphosphonium dicyanamide],0.55
5,CC(C(O)c1ccc(O)cc1)N1CCC(Cc2ccccc2)CC1 (stereo not shown) [Ifenprodil],7
6,CCCCc1cc2ccccc2c(OCCN(C)C)n1 [Dimethisoquin hydrochloride],3.65
7,"N#CC1(N=NC2(C#N)CCCCC2)CCCCC1 [1,1'-Diazene-1,2-diyldicyclohexanecarbonitrile]",43.6
8,CCCCCCCC[n+]1ccn(C)c1 [1-Methyl-3-octylimidazolium hexafluorophosphate],17.6
9,"CC(C)(C)c1cc([N+](=O)[O-])cc(C(C)(C)C)c1O [2,6-Di-tert-butyl-4-nitrophenol]",38.9
10,CC(C(O)c1ccccc1)N(C)CCOC(c1ccccc1)c1ccccc1 (stereo not shown) [Difeterol],1.83
11,"CC(C)(C)c1cccc(C(C)(C)C)c1O [2,6-Di-tert-butylphenol]",19.8
12,N#C/C(=C1/SC[C@@H](c2ccc(Cl)cc2Cl)S1)n1ccnc1 [Luliconazole],3.13
13,"O=P(OCC(Br)CBr)(OCC(Br)CBr)OCC(Br)CBr (stereo not shown) [Tris(2,3-dibromopropyl) phosphate]",16.9
14,COC(=O)c1cc(Oc2ccc(Cl)cc2Cl)ccc1[N+](=O)[O-] [Bifenox],23.6
15,CCOC(=O)c1nc(C(Cl)(Cl)Cl)n(-c2ccc(Cl)cc2Cl)n1 [Fenchlorazole-ethyl],49
16,COc1ccc(C(=CC(=O)N2CCOCC2)c2ccc(Cl)cc2)cc1OC [Dimethomorph],11.8
17,COc1ccc(C(c2ccc(OC)cc2)C(Cl)(Cl)Cl)cc1 [Methoxychlor],20.5
18,COC(=O)C(C)Oc1ccc(Oc2ccc(Cl)cc2Cl)cc1 (racemic) [(+-)-Diclofop-methyl],46.2
19,CCCCCCCCCCCCn1cc[n+](C)c1 [1-Dodecyl-3-methylimidazolium chloride],2.87
20,CCC(CN)=C(c1ccccc1)c1ccccc1 [Etifelmine hydrochloride],20.5
21,ClC1=C(Cl)C2(Cl)C3C(Cl)C(Cl)CC3C1(Cl)C2(Cl)Cl (stereo not shown) [Chlordane],30.9

row,Compound,IC50 [µM]
1,C=CC(C)(CCC=C(C)C)OC(=O)c1ccccc1 (stereo not shown) [Linalyl benzoate],20.3
2,"CC(C)(C)C(=O)C=Cc1ccc(Cl)cc1 [1-(4-Chlorophenyl)-4,4-dimethylpent-1-en-3-one]",43.6
3,CCCCOCCOC(=O)COc1nc(Cl)c(Cl)cc1Cl [Triclopyr butotyl],34.7
4,CN1CCC(N(Cc2ccccc2)c2ccccc2)CC1 [Bamipine],3.94
5,C[Si](Cn1cncn1)(c1ccc(F)cc1)c1ccc(F)cc1 [Flusilazole],40.2
6,CCOC(=O)C(Cl)Cc1cc(-n2nc(C)n(C(F)F)c2=O)c(F)cc1Cl (stereo not shown) [Carfentrazone-ethyl],28.6
7,COC(=O)C(C)Oc1ccc(Oc2ncc(C(F)(F)F)cc2Cl)cc1 (stereo not shown) [Haloxyfop-methyl],35.1
8,COC(=O)C1=C(C)NC(C)=C(C(=O)OCCCN2CCC(c3ccccc3)(c3ccccc3)CC2)C1c1cccc([N+](=O)[O-])c1 (racemic) [(+/-) -Niguldipine hydrochloride (1:x)],1.25
9,CCN(CC)CCOC(=O)C(c1ccccc1)c1ccccc1 [Adiphenine hydrochloride],4.77
10,CCCCCCCCCCCCCCCCCCNC(=O)OC1CCN(C(=O)OC[C@H](COC(=O)N(Cc2cccc[n+]2CC)C(=O)c2ccccc2OC)OC)CC1 [Minopafant],19
11,CCCCCCCCn1sccc1=O [Octhilinone],27.6
12,COC(=O)CSc1cc(N=c2sc(=O)n3n2CCCC3)c(F)cc1Cl [Fluthiacet-methyl],38.9
13,CC(C)=CCN1CC[C@@]2(C)c3cc(O)ccc3C[C@@H]1[C@@H]2C [(-)-Pentazocine succinate],22.8
14,O=C1CCCCCCCCCCOCCCCO1 [12-Oxahexadecanolide],49
15,Cc1c(C(=O)NN2CCCCC2)nn(-c2ccc(Cl)cc2Cl)c1-c1ccc(Cl)cc1 [Rimonabant],3.25
16,CCOC(=O)NCCOc1ccc(Oc2ccccc2)cc1 [Fenoxycarb],45.3
17,CN(C)C(=O)NC1(c2ccccc2)CCN(CCC[C@]2(c3ccc(Cl)c(Cl)c3)CCCN(C(=O)c3ccccc3)C2)CC1 [SSR146977],1.71
18,c1ccc(C(O[C@@H]2CCCN(CCc3ccc4c(c3)OCO4)C2)c2ccccc2)cc1 [Zamifenacin],0.838
19,O=C(N[C@@H](c1ccccc1)[C@@H]1CCCCN1)c1cccc(C(F)(F)F)c1Cl [SSR504734],50.9
